Measured values: patent publication US5861476A, “Peptides and compounds that bind to the IL-1 receptor” (Affymax Technologies N.V., priority 1995, dated 1999)
Where a SMILES comes first, the peptide text is derived from it. [ ]: non-standard residue; d: D form. Bpa = N[C@@H](Cc1ccc(C(=O)c2ccccc2)cc1)C(=O)O; 1Nal = N[C@@H](Cc1cccc2ccccc12)C(=O)O; Aze = O=C(O)[C@@H]1CCN1; Aib = CC(C)(N)C(=O)O

The molecules below were run against T1, IL-1RtI (Homo sapiens, UniProt P14778) (assay: Inhibition of 125I-IL-1α binding to IL-1RtI (Example 3)). Settings: inhibition of 125I-IL-1α binding to IL-1RtI; soluble peptide unless marked *.
T1 construct: made in house; host or cells: recombinant host cells (one form soluble from baculovirus transformed host cells; another PIG-tailed and cleaved from the cell surface)
T1 sequence (P14778 18-336): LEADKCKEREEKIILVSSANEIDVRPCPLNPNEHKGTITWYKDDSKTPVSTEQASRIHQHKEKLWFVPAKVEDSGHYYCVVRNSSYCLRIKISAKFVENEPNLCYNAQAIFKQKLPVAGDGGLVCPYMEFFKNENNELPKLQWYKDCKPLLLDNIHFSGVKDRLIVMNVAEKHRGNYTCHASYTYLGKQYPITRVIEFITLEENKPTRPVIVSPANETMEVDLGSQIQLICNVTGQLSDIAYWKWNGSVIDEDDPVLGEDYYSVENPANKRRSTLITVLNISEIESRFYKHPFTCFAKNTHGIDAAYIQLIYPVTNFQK
Description: This example provides the results of experiments conducted to determine an approximate IC50 for certain peptides of the invention. IC50 as used herein refers to the concentration of a compound which will inhibit 50% of the binding between a receptor and its ligand, e.g. IL-1RtI and IL-1. Stock solutions of each peptide were prepared. The appropriate amount of the peptide was dissolved in DMSO, and then nineteen volumes of binding buffer (RPMI 1640, 1% BSA, 20 mM HEPES, pH 7.2-7.3, and 0.1% sodium azide) were added to yield a 1 mM peptide, 5% DMSO stock solution.
One assay utilized a truncated IL-1RtI which had been immobilized on 96-well plates with an appropriate antibody, typically a non-blocking high affinity antibody. In other assays, cells expressing "full-length" IL-1RtI were used with results that yielded IC50 values about 5 to 10 fold lower than those determined using the truncated receptor. The cells were seeded onto Falcon 3072 96-well plates at about 10^5 cells per well, and the plates were incubated overnight at 37° C. in media containing serum. The following morning, the cells were checked to ensure that the cells were confluent and adhered to the bottom of the wells.
According to either assay protocol, the plates were then washed three times with binding buffer, and then 50 μl of binding buffer and 25 μl of a peptide solution (either the stock solution or a dilution thereof; each stock was subjected to five three fold dilutions) were added to each well. Then 25 μl of binding buffer containing ^125 I-IL-1α (final concentration of 90 pM) were added to each well to begin the assay. Each assay was carried out in duplicate. The plates were then incubated for two hours at 4° C. For peptides having particularly high affinities, the assay was run in 24 well plates allowing for higher levels of ligand (possible total volume of 2.5 ml instead of 100 μl in the 96 well plate), thereby minimizing the potential for ligand depletion.
After the two hour incubation, the wells were rinsed three times with ice cold PBS (a semi-automated cell harvesting device was used to conduct the rinse). The receptors or cells were then detached from the plates by adding 100 μl of 0.1N NaOH to each well and incubating the plates at room temperature for 20 minutes. After the 20 minute incubation, about 75 μl of the suspension was counted on a gamma counter, and the IC50 for each peptide was determined using computer assistance and the results of the gamma counting.
`C[C@@H](O)[C@H](NC(=O)[C@H](Cc1c[nH]c2ccccc12)NC(=O)[C@H](CCC(=O)O)NC(=O)[C@@H](N)Cc1cccc2ccccc12)C(=O)N1CCC[C@H]1C(=O)NCC(=O)N[C@@H](Cc1ccc(O)cc1)C(=O)N[C@@H](Cc1ccc(O)cc1)C(=O)N[C@@H](CCC(N)=O)C(=O)N1CC[C@H]1C(=O)N[C@@H](Cc1ccc(O)cc1)C(N)=O` [1Nap--EWTPGYYQJY--NH2] (H-[1Nal]EWTPGYYQ[Aze]Y-NH2) was tested, and the IC50 was ≤ 500 nM.
With `C[C@H](N)C(=O)N[C@@H](CCC(=O)O)C(=O)N[C@@H](Cc1c[nH]c2ccccc12)C(=O)N[C@H](C(=O)N1CCC[C@H]1C(=O)NCC(=O)N[C@@H](Cc1ccc(O)cc1)C(=O)N[C@@H](Cc1c[nH]c2ccccc12)C(=O)N[C@@H](CCC(N)=O)C(=O)N1CC[C@H]1C(=O)N[C@@H](Cc1ccc(O)cc1)C(N)=O)[C@@H](C)O` [AEWTPGYWQJY--NH2] (H-AEWTPGYWQ[Aze]Y-NH2) the IC50 was ≤ 100000 nM.
`CC(=O)N[C@@H](Cc1ccc(C(=O)c2ccccc2)cc1)C(=O)N[C@@H](CCC(=O)O)C(=O)N[C@@H](Cc1c[nH]c2ccccc12)C(=O)N[C@H](C(=O)N1CCC[C@H]1C(=O)NCC(=O)N[C@@H](Cc1ccc(O)cc1)C(=O)N[C@@H](Cc1ccc(O)cc1)C(=O)N[C@@H](CCC(N)=O)C(=O)N1CC[C@H]1C(=O)N[C@@H](Cc1ccc(O)cc1)C(N)=O)[C@@H](C)O` [AcBpa--EWTPGYYQJY--NH2] (Ac-[Bpa]EWTPGYYQ[Aze]Y-NH2) was tested, and the IC50 was ≤ 500 nM.
With `CC(=O)N[C@@H](Cc1ccccc1)C(=O)N[C@@H](CCC(=O)O)C(=O)N[C@@H](Cc1ccc(C(=O)c2ccccc2)cc1)C(=O)N[C@H](C(=O)N1CCC[C@H]1C(=O)NCC(=O)N[C@@H](Cc1ccc(O)cc1)C(=O)N[C@@H](Cc1ccc(O)cc1)C(=O)N[C@@H](CCC(N)=O)C(=O)N1CC[C@H]1C(=O)N[C@@H](Cc1ccc(O)cc1)C(N)=O)[C@@H](C)O` [AcFE--Bpa--TPGYYQJY--NH2] (Ac-FE[Bpa]TPGYYQ[Aze]Y-NH2) the IC50 was ≤ 100000 nM.
For `CC(=O)N[C@@H](Cc1ccccc1)C(=O)N[C@@H](CCC(=O)O)C(=O)N[C@@H](Cc1c[nH]c2ccccc12)C(=O)N[C@H](C(=O)N1CCC[C@H]1C(=O)NCC(=O)N[C@@H](Cc1ccc(C(=O)c2ccccc2)cc1)C(=O)N[C@@H](Cc1ccc(O)cc1)C(=O)N[C@@H](CCC(N)=O)C(=O)N1CC[C@H]1C(=O)N[C@@H](Cc1ccc(O)cc1)C(N)=O)[C@@H](C)O` [AcFEWTPG--Bpa--YQJY--NH2] (Ac-FEWTPG[Bpa]YQ[Aze]Y-NH2), the IC50 was ≤ 500 nM.
For `CC(=O)N[C@@H](Cc1ccccc1)C(=O)N[C@@H](CCC(=O)O)C(=O)N[C@@H](Cc1c[nH]c2ccccc12)C(=O)N[C@H](C(=O)N1CCC[C@H]1C(=O)NCC(=O)N[C@@H](Cc1ccc(O)cc1)C(=O)N[C@@H](Cc1ccc(C(=O)c2ccccc2)cc1)C(=O)N[C@@H](CCC(N)=O)C(=O)N1CC[C@H]1C(=O)N[C@@H](Cc1ccc(O)cc1)C(N)=O)[C@@H](C)O` [AcFEWTPGY--Bpa--QJY--NH2] (Ac-FEWTPGY[Bpa]Q[Aze]Y-NH2), the IC50 was ≤ 500 nM.
`CC(=O)N[C@@H](Cc1ccccc1)C(=O)N[C@@H](CCC(=O)O)C(=O)N[C@@H](Cc1c[nH]c2ccccc12)C(=O)N[C@H](C(=O)N1CCC[C@H]1C(=O)NCC(=O)N[C@@H](Cc1ccc(O)cc1)C(=O)N[C@@H](Cc1ccc(O)cc1)C(=O)N[C@@H](CCC(N)=O)C(=O)N1CC[C@H]1C(=O)N[C@@H](Cc1ccc(C(=O)c2ccccc2)cc1)C(N)=O)[C@@H](C)O` [AcFEWTPGYYQJ--Bpa--NH2] (Ac-FEWTPGYYQ[Aze][Bpa]-NH2) was tested, and the IC50 was ≤ 100000 nM.
For `C[C@@H](O)[C@H](NC(=O)[C@H](Cc1c[nH]c2ccccc12)NC(=O)[C@H](CCC(=O)O)NC(=O)[C@@H](N)Cc1ccc(C(=O)c2ccccc2)cc1)C(=O)N1CCC[C@H]1C(=O)NCC(=O)N[C@@H](Cc1ccc(O)cc1)C(=O)N[C@@H](Cc1ccc(O)cc1)C(=O)N[C@@H](CCC(N)=O)C(=O)N1CC[C@H]1C(=O)N[C@@H](Cc1ccc(O)cc1)C(N)=O` [Bpa--EWTPGYYQJY--NH2] (H-[Bpa]EWTPGYYQ[Aze]Y-NH2), the IC50 was ≤ 500 nM.
`C[C@H](NC(=O)[C@@H](N)Cc1ccccc1)C(=O)N[C@@H](Cc1c[nH]c2ccccc12)C(=O)N[C@H](C(=O)N1CCC[C@H]1C(=O)NCC(=O)N[C@@H](Cc1ccc(O)cc1)C(=O)N[C@@H](Cc1c[nH]c2ccccc12)C(=O)N[C@@H](CCC(N)=O)C(=O)N1CC[C@H]1C(=O)N[C@@H](Cc1ccc(O)cc1)C(N)=O)[C@@H](C)O` [FAWTPGYWQJY--NH2] (H-FAWTPGYWQ[Aze]Y-NH2) was tested, and the IC50 was ≤ 500 nM.
In the case of `C[C@@H](O)[C@H](NC(=O)[C@H](Cc1ccc(C(=O)c2ccccc2)cc1)NC(=O)[C@H](CCC(=O)O)NC(=O)[C@@H](N)Cc1ccccc1)C(=O)N1CCC[C@H]1C(=O)NCC(=O)N[C@@H](Cc1ccc(O)cc1)C(=O)N[C@@H](Cc1ccc(O)cc1)C(=O)N[C@@H](CCC(N)=O)C(=O)N1CC[C@H]1C(=O)N[C@@H](Cc1ccc(O)cc1)C(N)=O` [FE--Bpa--TPGYYQJY--NH2] (H-FE[Bpa]TPGYYQ[Aze]Y-NH2), the IC50 is reported as > 100000 nM.
`C[C@H](NC(=O)[C@H](CCC(=O)O)NC(=O)[C@@H](N)Cc1ccccc1)C(=O)N[C@H](C(=O)N1CCC[C@H]1C(=O)NCC(=O)N[C@@H](Cc1ccc(O)cc1)C(=O)N[C@@H](Cc1c[nH]c2ccccc12)C(=O)N[C@@H](CCC(N)=O)C(=O)N1CC[C@H]1C(=O)N[C@@H](Cc1ccc(O)cc1)C(N)=O)[C@@H](C)O` [FEATPGYWQJY--NH2] (H-FEATPGYWQ[Aze]Y-NH2) was tested, and the IC50 was ≤ 100000 nM.
`C[C@H](NC(=O)[C@H](Cc1c[nH]c2ccccc12)NC(=O)[C@H](CCC(=O)O)NC(=O)[C@@H](N)Cc1ccccc1)C(=O)N1CCC[C@H]1C(=O)NCC(=O)N[C@@H](Cc1ccc(O)cc1)C(=O)N[C@@H](Cc1c[nH]c2ccccc12)C(=O)N[C@@H](CCC(N)=O)C(=O)N1CC[C@H]1C(=O)N[C@@H](Cc1ccc(O)cc1)C(N)=O` [FEWAPGYWQJY--NH2] (H-FEWAPGYWQ[Aze]Y-NH2) was tested, and the IC50 was ≤ 500 nM.
For `C[C@H](NC(=O)[C@@H](NC(=O)[C@H](Cc1c[nH]c2ccccc12)NC(=O)[C@H](CCC(=O)O)NC(=O)[C@@H](N)Cc1ccccc1)[C@@H](C)O)C(=O)NCC(=O)N[C@@H](Cc1ccc(O)cc1)C(=O)N[C@@H](Cc1c[nH]c2ccccc12)C(=O)N[C@@H](CCC(N)=O)C(=O)N1CC[C@H]1C(=O)N[C@@H](Cc1ccc(O)cc1)C(N)=O` [FEWTAGYWQJY--NH2] (H-FEWTAGYWQ[Aze]Y-NH2), the IC50 was ≤ 500 nM.
`C[C@@H](O)[C@H](NC(=O)[C@H](Cc1c[nH]c2ccccc12)NC(=O)[C@H](CCC(=O)O)NC(=O)[C@@H](N)Cc1ccccc1)C(=O)NCC(=O)NCC(=O)N[C@@H](Cc1ccc(O)cc1)C(=O)N[C@@H](Cc1c[nH]c2ccccc12)C(=O)N[C@@H](CCC(N)=O)C(=O)N1CC[C@H]1C(=O)N[C@@H](Cc1ccc(O)cc1)C(N)=O` [FEWTGGYWQJY--NH2] (H-FEWTGGYWQ[Aze]Y-NH2) was tested, and the IC50 was ≤ 100000 nM.
For `C[C@@H](O)[C@H](NC(=O)[C@H](Cc1c[nH]c2ccccc12)NC(=O)[C@H](CCC(=O)O)NC(=O)[C@@H](N)Cc1ccccc1)C(=O)N1CC[C@H]1C(=O)NCC(=O)N[C@@H](Cc1ccc(O)cc1)C(=O)N[C@@H](Cc1c[nH]c2ccccc12)C(=O)N[C@@H](CCC(N)=O)C(=O)N1CC[C@H]1C(=O)N[C@@H](Cc1ccc(O)cc1)C(N)=O` [FEWTJGYWQJY--NH2] (H-FEWT[Aze]GYWQ[Aze]Y-NH2), the IC50 was ≤ 500 nM.
With `C[C@H](NC(=O)[C@@H]1CCCN1C(=O)[C@@H](NC(=O)[C@H](Cc1c[nH]c2ccccc12)NC(=O)[C@H](CCC(=O)O)NC(=O)[C@@H](N)Cc1ccccc1)[C@@H](C)O)C(=O)N[C@@H](Cc1ccc(O)cc1)C(=O)N[C@@H](Cc1c[nH]c2ccccc12)C(=O)N[C@@H](CCC(N)=O)C(=O)N1CC[C@H]1C(=O)N[C@@H](Cc1ccc(O)cc1)C(N)=O` [FEWTPAYWQJY--NH2] (H-FEWTPAYWQ[Aze]Y-NH2) the IC50 was ≤ 500 nM.
`C[C@@H](O)[C@H](NC(=O)[C@H](Cc1c[nH]c2ccccc12)NC(=O)[C@H](CCC(=O)O)NC(=O)[C@@H](N)Cc1ccccc1)C(=O)N1CCC[C@H]1C(=O)NC(C)(C)C(=O)N[C@@H](Cc1ccc(O)cc1)C(=O)N[C@@H](Cc1c[nH]c2ccccc12)C(=O)N[C@@H](CCC(N)=O)C(=O)N1CC[C@H]1C(=O)N[C@@H](Cc1ccc(O)cc1)C(N)=O` [FEWTPAibYWQJY--NH2] (H-FEWTP[Aib]YWQ[Aze]Y-NH2) was tested, and the IC50 was ≤ 500 nM.
